For data set [1], the system named is Acinetobacter baumannii. The data set is described as follows: Antibacterial activity against carbapenem-resistant Acinetobacter baumannii 1707 incubated for 24 hrs by CLSI based broth microdilution method. The format is functional, organism-based. In general terms: Dilution methods test growth across graded concentrations, often in twofold steps.
The test system of data set [2] is Acinetobacter baumannii. The data set is described as follows: Antibacterial activity against carbapenem-resistant Acinetobacter baumannii 1915 incubated for 24 hrs by CLSI based broth microdilution method. The format is functional, organism-based.
The subject of a further data set is Lipopolysaccharide (LPS). The data set is described as follows: Disaggregation of FITC-labeled Escherichia coli 0111:B4 LPS assessed as increase in fluorescence intensity at higher concentration.
Data set [3] concerns Pseudomonas aeruginosa. The data set is described as follows: Eradication of biofilm formation in multi-drug resistant Pseudomonas aeruginosa CCARM 2095 at 32 uM incubated for 12 hrs by CLSM analysis relative to control. The format is functional.
Data set [4] deals with Pseudomonas aeruginosa. Kind of data set: Inhibition of biofilm formation in multi-drug resistant Pseudomonas aeruginosa CCARM 2095 at 4 to 8 uM by crystal violet staining based analysis relative to control. It counts as functional. The note with it: dose 4-8 µM.
The test system of data set [5] is Pseudomonas aeruginosa. The data set is described as follows: Antibacterial activity against multi-drug resistant Pseudomonas aeruginosa CCARM 2095 incubated for 24 hrs by broth microdilution method. The format is functional.
Data set [6] has as its system Staphylococcus aureus. Kind of data set: Antibacterial activity against methicillin-resistant Staphylococcus aureus CCARM 3089 incubated for 24 hrs by broth microdilution method. The format is functional.
Data set [7] relates to Escherichia coli. Kind of data set: Induction of resistance development in Escherichia coli KCTC 1682 assessed as fold increase in MIC at 0.5 times MIC measured after 30 passages relative to control. It counts as functional.
The test system of data set [8] is Acinetobacter baumannii. The data set is described as follows: Antibacterial activity against multidrug-resistant Acinetobacter baumannii 329-53 incubated for 24 hrs by CLSI based broth microdilution method. It counts as functional.
For data set [9], the system named is Acinetobacter baumannii. Kind of data set: Antibacterial activity against carbapenem-resistant Acinetobacter baumannii NMS 1707 incubated for 24 hrs by CLSI based broth microdilution method. It counts as functional.
Data set [10] deals with Escherichia coli. Kind of data set: Induction of inner membrane permeabilization in Escherichia coli KCTC 1682 at MIC by PI staining based flow cytometry (reference value: 1.51 %). The format is functional. In general terms: A flow cytometer gives signals particle by particle.
Data set [11] in a line: Hemolytic activity in sheep RBC incubated for 1 hr by absorbance based assay. The conditions noted are these: erythrocyte. It counts as toxicity, cell-based, Ovis aries.
Data set [12] has as its system Acinetobacter baumannii. Kind of data set: Antibacterial activity against carbapenem-resistant Acinetobacter baumannii NMS 1915 incubated for 24 hrs by CLSI based broth microdilution method. The format is functional.
Data set [13] has as its system Acinetobacter baumannii. The data set is described as follows: Antibacterial activity against carbapenem-resistant Acinetobacter baumannii CCARM 12005 incubated for 24 hrs by CLSI based broth microdilution method. It counts as functional.
For another data set, the system named is Enterococcus faecium. Kind of data set: Antibacterial activity against vancomycin-resistant Enterococcus faecium ATCC 51559 incubated for 24 hrs by CLSI based broth microdilution method. It counts as functional.
In data set [14] the test system is Acinetobacter baumannii. The data set is described as follows: Antibacterial activity against multidrug-resistant Acinetobacter baumannii 329-97 incubated for 24 hrs by CLSI based broth microdilution method. The format is functional.
The test system of data set [15] is Pseudomonas aeruginosa. The data set is described as follows: Bactericidal activity against multidrug-resistant Pseudomonas aeruginosa CCARM 2095 at 128 to 512 uM incubated for 12 hrs by time-kill assay. The format is functional, organism-based. The note with it: dose 128-512 µM.
Data set [16] deals with Staphylococcus aureus. Kind of data set: Bactericidal activity against methicillin-resistant Staphylococcus aureus CCARM 3089 at 128 to 512 uM incubated for 12 hrs by time-kill assay. The format is functional, organism-based. The conditions noted are these: dose 128-512 µM.

In brackets after ≈: the same amount, converted by molar mass. Activity calls are given as the source filed them. The calls are words filed in the database; no cut-off is given here. Where a SMILES comes first, the peptide text is derived from it. Bridges are numbered along the chain shown (N, C = ends). [ ]: non-standard residue; d: D form. The star is where a group is joined. X1 = CC[C@H](C)CCCCC(=O)*; dDab = NCC[C@@H](N)C(=O)O; Dab = NCC[C@H](N)C(=O)O Where only a bound is given, the exact number is not on record here.

In the case of `C[C@@H](O)[C@H]1C(=O)N2C(C(=O)O)=C(SCCNC=N)C[C@H]12`, the outcome with Acinetobacter baumannii [1] and in the data set with Acinetobacter baumannii [2] was inactive.

With `CC(C)CCCCC(=O)N[C@@H](CCN)C(=O)N[C@H](C(=O)N[C@@H](CCN)C(=O)N[C@H]1CCNC(=O)[C@H]([C@@H](C)O)NC(=O)[C@H](CCN)NC(=O)[C@H](CCN)NC(=O)[C@H](CC(C)C)NC(=O)[C@@H](Cc2ccccc2)NC(=O)[C@@H](CCN)NC1=O)[C@@H](C)O.CC[C@H](C)CCCCC(=O)N[C@@H](CCN)C(=O)N[C@H](C(=O)N[C@@H](CCN)C(=O)N[C@H]1CCNC(=O)[C@H]([C@@H](C)O)NC(=O)[C@H](CCN)NC(=O)[C@H](CCN)NC(=O)[C@H](CC(C)C)NC(=O)[C@@H](Cc2ccccc2)NC(=O)[C@@H](CCN)NC1=O)[C@@H](C)O` (X1-[Dab]T[Dab][Dab][dDab][dF]L[Dab][Dab]T; lactam 4-C), the outcome in the data set on Lipopolysaccharide (LPS) was inactive.

Molecule `CC[C@H](C)[C@H](NC(=O)[C@H](CCCCN)NC(=O)[C@H](CCC(=O)O)NC(=O)[C@H](CCCCN)NC(=O)[C@H](CO)NC(=O)[C@H](CCCCN)NC(=O)[C@H](CCCNC(=N)N)NC(=O)[C@H](Cc1ccccc1)NC(=O)[C@H](Cc1ccccc1)NC(=O)[C@H](CC(=O)O)NC(=O)CNC(=O)[C@H](CC(C)C)NC(=O)[C@@H](N)CC(C)C)C(=O)NCC(=O)N[C@@H](CCCCN)C(=O)N[C@@H](CCC(=O)O)C(=O)N[C@@H](Cc1ccccc1)C(=O)N[C@@H](CCCCN)C(=O)N[C@@H](CCCNC(=N)N)C(=O)N[C@H](C(=O)N[C@H](C(=O)N[C@@H](CCC(N)=O)C(=O)N[C@@H](CCCNC(=N)N)C(=O)N[C@H](C(=O)N[C@@H](CCCCN)C(=O)N[C@@H](CC(=O)O)C(=O)N[C@@H](Cc1ccccc1)C(=O)N[C@@H](CC(C)C)C(=O)N[C@@H](CCCNC(=N)N)C(=O)N[C@@H](CC(N)=O)C(=O)N[C@@H](CC(C)C)C(=O)N[C@H](C(=O)N1CCC[C@H]1C(=O)N[C@@H](CCCNC(=N)N)C(=O)N[C@H](C(=O)N[C@@H](CCC(=O)O)C(=O)N[C@@H](CO)C(=O)O)[C@@H](C)O)C(C)C)[C@@H](C)CC)C(C)C)[C@@H](C)CC` [CATHELICIDIN] gave an Activity with Pseudomonas aeruginosa [3] of over 50%. The “inhibition (INH)” value in the data set with Pseudomonas aeruginosa [4] is on record as over 50%.

For the molecule `O=C(O)c1cn(C2CC2)c2cc(N3CCNCC3)c(F)cc2c1=O` [CIPROFLOXACIN], the MIC in the data set on Pseudomonas aeruginosa [5] and in the data set with Staphylococcus aureus [6] was 1020 µM (≈ 339 µg/mL) each time. The “fold change (FC)” value with Escherichia coli [7] worked out at 8192.

As for `CC[C@H](C)[C@H](NC(=O)CN)C(=O)NCC(=O)N[C@@H](C)C(=O)N[C@H](C(=O)N[C@@H](CC(C)C)C(=O)N[C@@H](CCCCN)C(=O)N[C@H](C(=O)N[C@@H](CC(C)C)C(=O)N[C@H](C(=O)N[C@H](C(=O)NCC(=O)N[C@@H](CC(C)C)C(=O)N1CCC[C@H]1C(=O)N[C@@H](C)C(=O)N[C@@H](CC(C)C)C(=O)N[C@H](C(=O)N[C@@H](CO)C(=O)N[C@@H](Cc1c[nH]c2ccccc12)C(=O)N[C@H](C(=O)N[C@@H](CCCCN)C(=O)N[C@@H](CCCNC(=N)N)C(=O)N[C@@H](CCCCN)C(=O)N[C@@H](CCCNC(=N)N)C(=O)N[C@@H](CCC(N)=O)C(=O)N[C@@H](CCC(N)=O)C(N)=O)[C@@H](C)CC)[C@@H](C)CC)[C@@H](C)O)[C@@H](C)O)C(C)C)C(C)C` [MELITTIN], the MIC turned out to be 2 µM (≈ 5.69 µg/mL) in the data set with Acinetobacter baumannii [8]; 8 µM (≈ 22.8 µg/mL) against Acinetobacter baumannii [9]; 4 µM (≈ 11.4 µg/mL) in the data set with Acinetobacter baumannii [12]; 8 µM (≈ 22.8 µg/mL) against Acinetobacter baumannii [13]; 2 µM (≈ 5.69 µg/mL) against Enterococcus faecium; 2 µM (≈ 5.69 µg/mL) in the data set on Acinetobacter baumannii [14]. Also, the Activity in the data set on Escherichia coli [10] is about 100%. Further, the HC10 in data set [11] stood at 2.2 µM.

As to `Cc1onc(-c2ccccc2)c1C(=O)N[C@@H]1C(=O)N2[C@@H]1SC(C)(C)[C@@H]2C(=O)O` [OXACILLIN], the outcome in the data set with Pseudomonas aeruginosa [15] and in the data set on Staphylococcus aureus [16] was inactive. For the same molecule, the MIC with Pseudomonas aeruginosa [5] came to 4100 µM (≈ 1640 µg/mL); against Staphylococcus aureus [6], 2050 µM (≈ 822 µg/mL).

Consider `CN(C)[C@@H]1C(O)=C(C(N)=O)C(=O)[C@@]2(O)C(O)=C3C(=O)c4c(O)cccc4[C@@](C)(O)[C@H]3C[C@@H]12` [TETRACYCLINE], for which the “fold change (FC)” value in the data set with Escherichia coli [7] is given as 256.

Broadly, the MIC is the least concentration at which growth counts as inhibited.

The record behind these values is ChEMBL document CHEMBL6074662, “Antibacterial, Antibiofilm, and Anti-inflammatory Effects of a Novel Thrombin-Derived Peptide in Sepsis Models: Insights into Underlying Mechanisms” (J Med Chem, 2024).
